How the values were obtained:
[1] = test system: 3×Tg‐AD mice; experiment: Golgi staining of dendritic spines and Western blotting of synaptic markers in 3×Tg-AD mice; format: in vivo
Description: Triple transgenic 3×Tg‐AD mice were acquired from Jackson Laboratory and fostered in the Shenzhen Center for Disease Control and Prevention (Shenzhen, China). Eight‐month‐old 3×Tg‐AD mice were categorized into six groups: (1) 3×Tg‐AD +Vehicle group; (2) 3×Tg‐AD +MN‐08 (3 mg/kg) group; (3) 3×Tg‐AD +MN‐08 (6 mg/kg) group; (4) 3×Tg‐AD +MN‐08 (12 mg/kg) group; (5) 3×Tg‐AD +Memantine (Mem, 5 mg/kg) group; (6) 3×Tg‐AD +Donepezil (Done, 1.3 mg/kg, once daily) group; (7) Eight‐month‐old B6129SF2/J mice as a control group. MN‐08 and memantine were given twice daily (Done, once daily) by gastric gavage for 4 months from 8 months of age.
Golgi staining was used to determine hippocampal dendritic spine density by a Rapid Golgi Stain Kit (FD Neurotechnologies, Columbia, MD, USA) according to the manufacturer’s instructions. The brain was removed after the behavioral tests and incubated with impregnation solution in the dark at room temperature for 1 week. Impregnation solution was replaced with solution A and stored in the dark for 3 days. Brain sections (100 μm thickness) were placed on gelatin-coated microscope slides and then immersed in ddH2O. Solution B, Solution C, 80 % ethanol and xylene were used for 10 min, sequentially. The dendritic spines of hippocampal neurons were analyzed and counted in a blinded manner from six sections per animal by light microscopy (Olympus, Tokyo, Japan).
Western blotting analysis was performed as previously described with minor modifications (Huang, Li, & Nan, 2017). Proteins were extracted from hippocampal tissue and their concentrations determined by the BCA protein assay kit (Fdbio science, Hangzhou, China). The protein (20 μg) was separated on a 12% SDS-PAGE gel and then transferred to PVDF membranes. The membranes were blocked using 5 % nonfat dry milk for 2 h. […] Quantitative analysis of protein bands was conducted by the Carestream system (Carestream Health, Inc, USA).

[2] = test system: ERK and PI3K/Akt/GSK3β pathway; experiment: Western blotting of p-ERK, p-Akt, p-GSK3β and Bcl-2 in glutamate-challenged CGNs; format: cell-based, rat; details: for upregulation of ERK1/2 phosphorylation induced by glutamate: 2 h pre‐treatment, glutamate 0.5 h
Source text: To further characterize the neuroprotection of MN‐08, the level of the key signaling molecules, such as ERK, Akt, and GSK3β, was examined by Western blotting assay. […] Moreover, pre‐treatment with MN‐08 reversed expression of both p‐Akt and p‐GSK3β with the challenge of glutamate. Akt is an important downstream member of PI3K. To further confirm whether the PI3K/Akt pathway was associated with the neuroprotection of MN‐08 against glutamate‐induced excitotoxicity, specific PI3K inhibitor LY294002 was applied and incubated with MN‐08. […] Taken together, MN‐08 might protect against glutamate‐induce cytotoxicity by reversing the dysregulations of ERK pathway and PI3K/Akt/GSK3β pathway.
Western blotting analysis was performed as previously described with minor modifications (Huang, Li, & Nan, 2017). Proteins were extracted from hippocampal tissue and their concentrations determined by the BCA protein assay kit (Fdbio science, Hangzhou, China). The protein (20 μg) was separated on a 12% SDS-PAGE gel and then transferred to PVDF membranes. The membranes were blocked using 5 % nonfat dry milk for 2 h. The protein blots were incubated with the corresponding primary antibodies against p-Akt (#4060, 1:1000, Cell Signaling Technology), Akt (#4685, 1:1000, Cell Signaling Technology), BACE1 (#5606, 1:1000, Cell Signaling Technology), PS1 (#5643, 1:1000, Cell Signaling Technology), p-GSK3β (#5558, 1:1000, Cell Signaling Technology), GSK3β (#12456, 1:1000, Cell Signaling Technology), Bcl-2 (#3498, 1:1000, Cell Signaling Technology), Bax (#5023, 1:1000, Cell Signaling Technology), Cleaved caspase-3 (#9661, 1:1000, Cell Signaling Technology), Caspase-3 (#9662, 1:1000, Cell Signaling Technology), ADAM10 (#14194, 1:1000, Cell Signaling Technology), APP (#ab241592, 1:1000, Abcam), sAPPα (#ab126723, 1:1000, Abcam), NEP (#ab216341, 1:1000, Abcam), Synapsin I (#ab64581, 1:1000, Abcam), Synapsin II (#ab76494, 1:1000, Abcam), NR2A (#ab124913, 1:2000, Abcam), PSD95 (#ab18258, 1:1000, Abcam), Synaptophysin (#ab32127, 1:1000, Abcam), IDE (#ab133561, 1:1000, Abcam), Drebin (#ab178408, 1:1000, Abcam) and Tau-5 (#ab80579, 1:2000, Abcam) overnight at 4°C. After washing 3 times, the membranes were incubated with the respective HRP-conjugated secondary antibody. ECL Western blotting Detection Reagents (Fdbio science, Hangzhou, China) were used to perform Chemiluminescence detection. Quantitative analysis of protein bands was conducted by the Carestream system (Carestream Health, Inc, USA).
CGNs were prepared from the 8-day-old Sprague–Dawley rats as described in our previous publication (Li et al., 2005). Briefly, animals were anesthetized and sacrificed, and their cerebella were collected. Then, the freshly collected cerebella were rinsed in cold Kreb’s buffer-BSA and digested with 0.025 % trypsin incubated in a 37°C for 15 min. The reaction was stopped, and the single cell suspension was obtained through pipetting up and down the sedimentary tissue. CGNs were seeded in basal modified Eagle’s medium (ThermoFisher Scientific, Waltham, MA, USA) supplemented with 10 % fetal bovine serum, 25 mM KCl, 2 mM glutamine and 100 units/mL penicillin/streptomycin at a density of 1.5×10^6 cells/mL. Cytosine arabinoside (10 μM) was added to inhibit the growth of non-neuronal cells at 24 h after seeding. All experiments were carried out after 8 days in vitro. […]

Compound | reduction of dendritic spines (hippocampus CA1, Golgi staining) ([1]; MN‐08 6 mg/kg) | expression of synaptic markers (SYP, PSD95, SYN I, SYN II, NR2A) ([1]; MN‐08 6 mg/kg, Western blot) | expression of both p‐Akt and p‐GSK3β with the challenge of glutamate ([2]; MN‐08 30 µM pre‐treatment) | upregulation of ERK1/2 phosphorylation induced by glutamate ([2]; MN‐08 30 µM) | Bcl‐2 downregulation caused by glutamate ([2]; pre‐treatment MN‐08 30 µM) | reduction of dendritic spines (hippocampus CA1, Golgi staining) ([1]; memantine 5 mg/kg) | upregulation of ERK1/2 phosphorylation induced by glutamate ([2]; memantine 10 µM)
CCC12CC3CC(N)(C1)CC(CO[N+](=O)[O-])(C3)C2 (stereo not shown) [MN‐08] | markedly reversed | significantly increased | reversed | significantly inhibited | significantly reversed | – | –
CC12CC3CC(C)(C1)CC(N)(C3)C2 [memantine, 1‐amino‐3,5‐dimethyladamantane] | – | – | – | – | – | markedly reversed | significantly inhibited
